In patent US12233069B2, “Oral solid tablet comprising Bruton's Tyrosine Kinase inhibitor and preparation method therefor” (BEIGENE SWITZERLAND GMBH, priority 2019, dated 2025):
Entries after “also recorded” stand apart in the source; their conditions may differ.

Columns and labels:
[1] = Hygroscopicity of the active pharmaceutical ingredient; type: physicochemical
[2] = Solubility / biopharmaceutical classification system class; type: physicochemical

For `C=CC(=O)N1CCC([C@@H]2CCNc3c(C(N)=O)c(-c4ccc(Oc5ccccc5)cc4)nn32)CC1` [Zanubrutinib, (S)-7-[4-(1-acryloylpiperidine)]-2-(4-phenoxyphenyl)-4,5,6,7-tetrahydropyrazolo[1,5-a] pyrimidine-3-carboxamide], the hygroscopicity [1] was “slightly hygroscopic”, the “biopharmaceutical classification system class” value [2] was “class II (low solubility, and high permeability)” and the solubility ([2]; active pharmaceutical ingredient) was “poor solubility; also recorded: pH-dependent solubility”.
